Results published in patent US11827636B2, “Degradation of cyclin-dependent kinase 8 (CDK8) by conjugation of CDK8 inhibitors with E3 ligase ligand and methods of use” (DANA-FARBER CANCER INSTITUTE, INC., priority 2016, dated 2023).

Legend:
Type in all cases: cell-based
pS727-STAT1 [1] = assay: Western blot, pS727-STAT1 level in wild-type (WT) Molt4 cells; conditions: 1 μM compound, 6 hours
Description: (§1) Cells are treated with a control or a bifunctional compound of the application alone or in combination with an agent that blocks proteasomal degradation at a single concentration or various concentrations. After treatment, cells are washed and harvested by resuspending in buffer and lysed on ice 30 minutes. Lysates are then cleared by centrifugation. Samples are boiled and equal amount of protein is loaded onto polyacrylamide gel. The gel is transferred to nitrocellulose and blotted for CDK8, mTOR, STAT1 serine 727 phosphorylation or actin.
(§2) The indicated cells were treated with vehicle control or the bifunctional compounds of the application, at a single or various concentrations, alone or in combination with bortezomib, an agent that blocks proteasomal degradation. After treatment, cells were washed with PBS and lysed in lysis buffer and then cleared by centrifugation. Protein concentrations were determined by BCA assay, and equal amounts of protein were loaded onto gels to perform Western blots. Gels were transferred to nitrocellulose, blocked with 5% milk in TBS-T, and probed for CDK8, mTOR, S727-STAT1, and Actin. Antibody binding was detected using near-infrared-dye-conjugated secondary antibodies.

CDK8 [2] = target: T1, CDK8 (Homo sapiens, UniProt P49336); assay: Enzyme degradation assay (western blot), CDK8 level in wild-type (WT) Molt4 cells; conditions: 1 μM compound, 6 hours
T1 construct: endogenous in cells; host or cells: wild-type Molt4 cells
T1 sequence (P49336 whole entry): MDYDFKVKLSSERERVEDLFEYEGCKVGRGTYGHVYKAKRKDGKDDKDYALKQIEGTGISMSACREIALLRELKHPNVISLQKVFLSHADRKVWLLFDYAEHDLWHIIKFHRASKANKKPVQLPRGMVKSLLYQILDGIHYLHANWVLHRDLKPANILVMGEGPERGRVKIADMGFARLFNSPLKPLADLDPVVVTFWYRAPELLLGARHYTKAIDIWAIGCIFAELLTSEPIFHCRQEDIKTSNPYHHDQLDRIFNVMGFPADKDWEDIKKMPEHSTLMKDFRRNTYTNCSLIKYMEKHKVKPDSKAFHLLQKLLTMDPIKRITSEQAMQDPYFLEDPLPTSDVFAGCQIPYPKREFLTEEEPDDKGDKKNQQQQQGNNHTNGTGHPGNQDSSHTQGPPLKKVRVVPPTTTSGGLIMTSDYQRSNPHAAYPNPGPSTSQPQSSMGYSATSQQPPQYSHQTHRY
T1 sequence (P24863 whole entry partner): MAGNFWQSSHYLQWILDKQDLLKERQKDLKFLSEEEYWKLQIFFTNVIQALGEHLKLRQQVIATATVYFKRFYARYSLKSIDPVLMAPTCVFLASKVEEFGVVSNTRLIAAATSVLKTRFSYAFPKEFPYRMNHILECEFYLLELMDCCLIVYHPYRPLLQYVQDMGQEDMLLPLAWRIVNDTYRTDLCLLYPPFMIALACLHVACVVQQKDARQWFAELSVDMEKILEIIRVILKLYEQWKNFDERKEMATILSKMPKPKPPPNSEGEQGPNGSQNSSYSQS
T1 sequence (Q96SW2 whole entry partner): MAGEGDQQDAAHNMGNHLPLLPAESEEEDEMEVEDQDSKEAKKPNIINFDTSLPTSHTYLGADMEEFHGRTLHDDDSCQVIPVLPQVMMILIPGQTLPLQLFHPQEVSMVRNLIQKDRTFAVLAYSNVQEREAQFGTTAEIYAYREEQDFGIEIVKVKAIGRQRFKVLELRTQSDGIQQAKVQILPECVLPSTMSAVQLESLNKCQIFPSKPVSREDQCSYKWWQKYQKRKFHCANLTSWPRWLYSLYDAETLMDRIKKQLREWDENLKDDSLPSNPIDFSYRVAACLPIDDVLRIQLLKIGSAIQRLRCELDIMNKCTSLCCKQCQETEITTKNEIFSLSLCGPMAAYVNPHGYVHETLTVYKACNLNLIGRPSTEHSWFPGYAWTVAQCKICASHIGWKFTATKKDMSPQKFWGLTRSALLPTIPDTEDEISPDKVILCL
Description: as §1, §2

CDK8 [3] = target: T2, CDK8 (Mus musculus, UniProt Q8R3L8); assay: Enzyme degradation assay (western blot), CDK8 level in MC38 colorectal cancer cells; conditions: 6 hours
T2 construct: levels of CDK8, pS727-STAT1, and actin in MC38 colorectal cancer cells; endogenous in cells; host or cells: MC38 colorectal cancer cells
T2 sequence (Q8R3L8 1-464): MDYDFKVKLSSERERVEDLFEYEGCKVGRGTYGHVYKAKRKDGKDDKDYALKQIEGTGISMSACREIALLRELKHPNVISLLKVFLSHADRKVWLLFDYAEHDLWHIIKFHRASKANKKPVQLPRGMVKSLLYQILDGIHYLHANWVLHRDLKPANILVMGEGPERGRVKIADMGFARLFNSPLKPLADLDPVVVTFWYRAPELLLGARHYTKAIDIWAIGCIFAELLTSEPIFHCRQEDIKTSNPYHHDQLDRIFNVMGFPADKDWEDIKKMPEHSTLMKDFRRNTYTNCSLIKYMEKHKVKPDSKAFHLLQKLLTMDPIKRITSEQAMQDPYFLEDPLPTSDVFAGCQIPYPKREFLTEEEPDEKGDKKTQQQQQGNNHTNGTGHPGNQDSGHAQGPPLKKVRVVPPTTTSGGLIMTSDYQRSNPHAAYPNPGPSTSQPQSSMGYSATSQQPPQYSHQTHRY
T2 sequence (Q62447 1-283 partner): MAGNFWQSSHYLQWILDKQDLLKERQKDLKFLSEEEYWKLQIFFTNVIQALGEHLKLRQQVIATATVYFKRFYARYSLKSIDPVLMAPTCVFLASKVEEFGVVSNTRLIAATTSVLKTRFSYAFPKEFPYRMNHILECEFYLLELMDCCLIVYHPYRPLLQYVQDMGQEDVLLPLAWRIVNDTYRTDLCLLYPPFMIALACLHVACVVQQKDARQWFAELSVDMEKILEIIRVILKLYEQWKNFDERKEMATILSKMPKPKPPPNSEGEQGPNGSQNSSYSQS
T2 sequence (Q8C7D2 1-445 partner): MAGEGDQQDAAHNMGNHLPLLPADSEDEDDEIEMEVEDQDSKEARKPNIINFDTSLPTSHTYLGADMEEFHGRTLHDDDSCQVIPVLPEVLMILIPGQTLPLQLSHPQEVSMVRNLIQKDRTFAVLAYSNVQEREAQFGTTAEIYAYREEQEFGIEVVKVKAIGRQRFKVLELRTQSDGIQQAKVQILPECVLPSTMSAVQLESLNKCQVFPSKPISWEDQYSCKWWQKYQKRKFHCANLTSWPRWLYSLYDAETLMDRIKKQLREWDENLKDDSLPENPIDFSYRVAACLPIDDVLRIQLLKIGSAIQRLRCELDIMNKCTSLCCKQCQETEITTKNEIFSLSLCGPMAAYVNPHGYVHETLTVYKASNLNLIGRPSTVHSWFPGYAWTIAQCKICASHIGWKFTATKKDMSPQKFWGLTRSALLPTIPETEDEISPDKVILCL
Description: as §1
Cells are treated with a control or a bifunctional compound of the application at various concentrations for a desired period of time. Cells are then lysed in a suitable buffer. Protein concentration may be measured with any appropriate assay known in the art. […] The signals from the label are detected.
The indicated cells were treated with vehicle control or the bifunctional compounds of the application, at a single or various concentrations, alone or in combination with bortezomib, an agent that blocks proteasomal degradation. […] Protein concentrations were determined by BCA assay, and equal amounts of protein were loaded onto gels to perform Western blots. […] Antibody binding was detected using near-infrared-dye-conjugated secondary antibodies. […]

pS727-STAT1 [4] = assay: Western blot, pS727-STAT1 level in MC38 colorectal cancer cells; conditions: 6 hours
Description: as §1, §2

[5] = 1 μM compound in combination with 10 nM bortezomib

degradation of CDK8 (western blot level of CDK8) (CDK8 [2]) | degradation of CDK8 when the proteasome is inhibited with bortezomib (CDK8 [3]; [5]) | degradation of CDK8 (western blot level of CDK8) (CDK8 [3]; 1 μM compound, alone) | Compound | phosphorylation of Ser727-STAT1 (pS727-STAT1 [1]) | reduction in the level of pSer727-STAT1 when the proteasome is inhibited with bortezomib (pS727-STAT1 [4]; [5]) | level of phosphorylation of the CDK8 substrate Ser727-STAT1 (pS727-STAT1 [4]; 1 μM compound, alone)
efficiently degraded CDK8 | rescued | efficiently degraded CDK8 | O=C1CCC(N2C(=O)c3cccc(NCCOCCOCCOCCOCCOCCC(=O)N4CCN(c5ccc(-n6c(=O)ccc7cnc8ccc(-c9ccc%10ccncc%10c9)cc8c76)cc5C(F)(F)F)CC4)c3C2=O)C(=O)N1 (centres unmarked) [Compound I-3, 2-(2,6-dioxopiperidin-3-yl)-4-((18-(4-(4-(9-(isoquinolin-7-yl)-2-oxobenzo[h][1,6]naphthyridin-1(2H)-yl)-2-(trifluoromethyl)phenyl)piperazin-1-yl)-18-oxo-3,6,9,12,15-pentaoxaoctadecyl)amino)isoindoline-1,3-dione] | blocked phosphorylation | rescued | lowered the level of phosphorylation
efficiently degraded CDK8 | – | – | O=C1CCC(N2C(=O)c3cccc(NCCCCn4cc(-c5ccc(-c6cncc(Cl)c6N6CCC7(CCNC7=O)CC6)cc5)cn4)c3C2=O)C(=O)N1 (centres unmarked) [Compound I-6, 4-(4-(4-(4-(5-chloro-4-(1-oxo-2,8-diazaspiro[4.5]decan-8-yl)pyridin-3-yl)phenyl)-1H-pyrazol-1-yl)butylamino)-2-(2,6-dioxopiperidin-3-yl)isoindoline-1,3-dione] | blocked phosphorylation | – | –
